According to PMC12749748, “Chemically-induced degradation of the endoplasmic-reticulum stress sensor IRE1 by a VHL-recruiting chimera” (Nature Communications, 2025):
Where “and” joins values, the source holds several entries; their conditions need not be identical. Equal values may be shown once.

Legend:
IRE1 = IRE1 (Homo sapiens, UniProt O75460); experiment: SelectScreen kinase profiling, IRE1; format: biochemical; details: 1 µM, 1 h
Protocol: The kinome selectivity of G6374 was assessed at 1 μM for 1 h versus a panel of 220 human kinases (SelectScreen Kinase Profiling Services, Thermo Fisher Scientific). The assays were conducted using either the Z’-LYTE technology to assess inhibition of enzyme activity ([ATP] = Km) or the TR-FRET-based LanthaScreen Eu Kinase Binding assay to assess competitive displacement of an ATP site binding probe. Assay results were normalized to positive and negative controls to determine percent inhibition. Image was created by KNIME Report Designer (KNIME.com AG, Zurich, Switzerland). Kinases for which ATP binding was inhibited by more than 90% were further examined by IB analysis for depletion by G6374 in AMO1 cells (4 h incubation).

IRE1:VHL = IRE1:VHL (Homo sapiens, UniProt O75460+P40337); experiment: NanoBRET IRE1:VHL interaction, WT IRE1, HEK293T cells; format: cell-based; parameters: N2731 (HaloTag-VHL); host or cells: HEK293T
Chain of IRE1:VHL (O75460 19-977): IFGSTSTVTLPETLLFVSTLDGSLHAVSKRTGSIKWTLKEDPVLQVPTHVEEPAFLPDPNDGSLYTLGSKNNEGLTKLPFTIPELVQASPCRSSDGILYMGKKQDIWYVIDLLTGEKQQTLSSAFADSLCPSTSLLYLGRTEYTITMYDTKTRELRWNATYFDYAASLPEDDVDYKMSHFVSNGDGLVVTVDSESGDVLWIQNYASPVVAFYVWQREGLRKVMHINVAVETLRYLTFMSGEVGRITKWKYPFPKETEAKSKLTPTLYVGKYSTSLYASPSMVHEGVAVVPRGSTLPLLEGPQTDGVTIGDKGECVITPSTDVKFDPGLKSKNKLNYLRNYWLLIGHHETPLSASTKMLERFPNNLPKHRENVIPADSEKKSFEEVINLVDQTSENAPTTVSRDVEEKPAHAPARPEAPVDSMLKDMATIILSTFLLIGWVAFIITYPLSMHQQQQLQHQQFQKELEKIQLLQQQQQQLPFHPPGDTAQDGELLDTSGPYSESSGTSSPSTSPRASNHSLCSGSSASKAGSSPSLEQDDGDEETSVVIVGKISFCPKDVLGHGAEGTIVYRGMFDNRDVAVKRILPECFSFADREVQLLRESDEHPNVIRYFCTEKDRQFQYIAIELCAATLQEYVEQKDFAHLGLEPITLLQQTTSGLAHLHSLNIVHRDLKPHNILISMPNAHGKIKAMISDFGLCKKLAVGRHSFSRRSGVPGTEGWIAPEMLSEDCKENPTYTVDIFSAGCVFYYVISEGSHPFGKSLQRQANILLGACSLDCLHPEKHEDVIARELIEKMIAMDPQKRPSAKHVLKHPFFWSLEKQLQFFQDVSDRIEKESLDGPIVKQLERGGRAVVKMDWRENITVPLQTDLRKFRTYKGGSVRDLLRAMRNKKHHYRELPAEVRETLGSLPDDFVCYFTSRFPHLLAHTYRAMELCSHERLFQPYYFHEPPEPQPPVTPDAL
Chain of IRE1:VHL (P40337 whole entry, the tested form may be a part): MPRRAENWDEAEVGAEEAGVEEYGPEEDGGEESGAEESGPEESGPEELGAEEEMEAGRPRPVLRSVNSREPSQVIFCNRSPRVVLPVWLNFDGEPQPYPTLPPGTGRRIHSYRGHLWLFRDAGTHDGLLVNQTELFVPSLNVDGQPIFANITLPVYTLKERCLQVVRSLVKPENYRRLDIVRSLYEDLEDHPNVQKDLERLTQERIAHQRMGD
Chain of IRE1:VHL (Q15369 whole entry partner, the tested form may be a part): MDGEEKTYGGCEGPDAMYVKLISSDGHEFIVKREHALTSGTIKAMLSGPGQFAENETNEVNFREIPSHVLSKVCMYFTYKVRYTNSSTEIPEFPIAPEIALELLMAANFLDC
Chain of IRE1:VHL (Q15370 whole entry partner, the tested form may be a part): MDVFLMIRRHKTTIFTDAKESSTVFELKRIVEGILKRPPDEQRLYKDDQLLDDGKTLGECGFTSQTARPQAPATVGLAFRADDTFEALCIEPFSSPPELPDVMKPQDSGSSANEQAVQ
Chain of IRE1:VHL (Q13617 whole entry partner, the tested form may be a part): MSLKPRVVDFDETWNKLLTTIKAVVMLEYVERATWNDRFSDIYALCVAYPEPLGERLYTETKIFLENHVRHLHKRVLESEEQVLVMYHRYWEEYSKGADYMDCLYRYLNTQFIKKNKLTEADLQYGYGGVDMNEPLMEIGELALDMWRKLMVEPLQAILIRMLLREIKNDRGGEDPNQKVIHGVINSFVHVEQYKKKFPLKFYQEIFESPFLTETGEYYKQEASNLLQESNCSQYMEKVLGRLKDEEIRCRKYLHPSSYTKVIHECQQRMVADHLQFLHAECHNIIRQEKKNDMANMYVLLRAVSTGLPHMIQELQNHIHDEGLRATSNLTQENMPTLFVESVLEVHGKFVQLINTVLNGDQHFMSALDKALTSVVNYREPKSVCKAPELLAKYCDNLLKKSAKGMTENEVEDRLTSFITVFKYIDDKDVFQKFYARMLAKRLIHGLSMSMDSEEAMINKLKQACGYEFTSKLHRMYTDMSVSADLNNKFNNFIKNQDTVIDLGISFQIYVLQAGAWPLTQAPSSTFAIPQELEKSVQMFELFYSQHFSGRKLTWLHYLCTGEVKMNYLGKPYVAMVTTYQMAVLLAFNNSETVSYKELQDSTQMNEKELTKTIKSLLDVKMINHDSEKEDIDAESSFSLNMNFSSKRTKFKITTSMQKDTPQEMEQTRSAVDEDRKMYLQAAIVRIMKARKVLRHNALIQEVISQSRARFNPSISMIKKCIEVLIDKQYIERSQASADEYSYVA
Chain of IRE1:VHL (P62877 whole entry partner, the tested form may be a part): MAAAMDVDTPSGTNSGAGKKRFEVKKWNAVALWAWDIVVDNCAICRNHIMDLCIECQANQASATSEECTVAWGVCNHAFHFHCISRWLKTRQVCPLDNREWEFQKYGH
Protocol: 8 × 10^5 293T cells per well were seeded in 6-well plates (Costar, #3516) and incubated at 37 °C, 5% CO2 for 6 h. A mixture of 0.2 µg ERN1 (IRE1)-NanoLuc Fusion Vector (Promega, NV1321), 2 µg HaloTag-VHL Fusion Vector (Promega, N2731), 6 µl FuGENE HD Transfection Reagent (Promega, E2311), and 100 µL Opti-MEM I reduced serum medium (Gibco, #31985062) per well was incubated at room temperature for 20 min before adding to cells. For expression of IRE1 mutants, site-directed mutagenesis was performed using the ERN1-NanoLuc Fusion Vector as the DNA template, and the transfection mixture was prepared in the same way as WT IRE1. After 18 h, cells from 6-well plates were trypsinized, resuspended in Opti-MEM I reduced serum medium, and reseeded into 96-well plates (Costar, #3917), with or without the addition of HaloTag NanoBRET 618 Ligand (Promega, G9801). […] After 2 h of G6374 treatment, NanoBRET Nano-Glo Substrate (Promega, N1571) was added to cells. The 96-well plates were imaged by GloMax Discover Microplate Reader (Promega, GM3000) with the default “BRET: NanoBRET 618” protocol (Donor: 450 BP; Acceptor: 600 LP; Integration: 0.3 s). Data analysis was performed according to the user manual.

VCB [1] = biological target: VCB (Homo sapiens, UniProt P40337); experiment: Fluorescence polarization displacement of FAM-labeled HIF-1α peptide from VCB; format: binding
Chain of VCB (Homo sapiens, UniProt P40337) (Q15370 whole entry): as the sequence (Q15370 whole entry partner, the tested form may be a part) above
Chain of VCB (Homo sapiens, UniProt P40337) (Q15369 17-112, further chain): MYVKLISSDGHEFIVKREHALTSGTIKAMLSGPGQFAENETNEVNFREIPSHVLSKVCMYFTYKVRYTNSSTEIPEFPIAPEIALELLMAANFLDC
Chain of VCB (Homo sapiens, UniProt P40337) (P40337 55-213): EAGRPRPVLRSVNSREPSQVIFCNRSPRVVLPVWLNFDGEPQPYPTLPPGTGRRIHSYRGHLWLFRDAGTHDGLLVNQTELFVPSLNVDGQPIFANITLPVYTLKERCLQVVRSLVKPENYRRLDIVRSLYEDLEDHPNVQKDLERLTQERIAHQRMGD
Protocol: (§1) Assays were performed in duplicates on ProxiPlate-384 F Plus (Revvity, #6008260) with a total well volume of 16 µL. Each well contained 50 nM of FAM-labeled HIF-1α peptide (FAM-DEALA-Hyp-YIPD, biotechne, #7287), 500 nM of VCB protein, and a titration of G6374 (2-fold serial dilutions from […] to 625 nM, then 1.3-fold serial dilutions to 284.5 nM, followed by 2-fold serial dilutions to 8.9 nM) or IRE1.KR:G6374 (constant concentration of 2.4 µM IRE1.KR and the same serial dilution of G6374 as mentioned above) in 50 mM HEPES pH 7.2, 100 mM NaCl, 1 mM TCEP, and 0.002% Tween 20 with a final concentration of DMSO of 1.5%. The plate was incubated at room temperature in the dark, first for 5 min on a shaker at 300 rpm, then for another 30 min on the bench. FP was measured using the EnVision Multimode Plate Reader (PerkinElmer) with fluorescence excitation and emission wavelengths of 480 nm and 535 nm. The percentage of HIF-1α displacement was calculated by normalization to maximum fluorescence anisotropy (or 0% displacement of the HIF-1α peptide) and minimum fluorescence anisotropy (or 100% displacement of the HIF-1α peptide), which were determined by “top” and “bottom” values of the curve fit of fluorescence anisotropy against G6374 concentration in GraphPad Prism 10 (GraphPad Software, Inc.). The IC50 values were then determined by curve fitting with the percentage of HIF-1α displacement against G6374 concentration in GraphPad Prism 10 (GraphPad Software, Inc.).

VCB [2] = experiment: as above; format: binding; details: ratio between IC50 of VCB: G6374 and VCB: (G6374 + IRE1)
Protocol: as §1

Chain of IRE1 (O75460 19-977): as the sequence (O75460 19-977) above

`Cc1ncsc1-c1ccc(CNC(=O)[C@@H]2C[C@@H](O)CN2C(=O)[C@@H](NC(=O)CCCCN2CCN([C@H]3CC[C@H](Nc4ncc5ccc(=O)n(C(C)C)c5n4)CC3)CC2)C(C)(C)C)cc1` [G6374] was tested, and the “inhibition of IRE1” value (IRE1) was “complete inhibition”, the EC50 (IRE1:VHL) was 110 ± 30 nM and the “EC50 of IRE1:VHL interaction (NanoBRET ratio)” value (IRE1:VHL; WT IRE1, HEK293T, estimated) was 110 nM. The IC50 (VCB [1]; G6374 alone, absence of IRE1, N=3, mean ± SEM) was 2480 ± 112 nM, the IC50 (VCB [1]; G6374 in the presence of saturating IRE1 (2.4 µM), N=3, mean ± SEM) was 492 ± 21 nM and the Cooperativity alpha (VCB [2]) was 5 and 5 ± 0.15.
